According to US11116721B2, “Pharmaceutical formulations comprising 4-{(1R)-2-[(6-{2-[(2,6-dichlorobenzyl)oxy]ethoxy}hexyl)amino]-1-hydroxyethyl}-2-(hydroxymethyl) phenol” (Glaxo Group Limited, priority 2009, dated 2021):

Columns and labels:
COPD patients = assay: Clinical pharmacology studies of Compound (I) in COPD patients (FEV1); format: in vivo, human; details: 100 mcg and 400 mcg, with lactose alone
Description: (§1) Compound (I) as the α-phenylcinnamate salt and the triphenylacetate salt has been studied in a number of clinical pharmacology studies, including single- and repeat-dose studies. In addition, these studies have evaluated Compound (I) with the excipients cellobiose octaacetate and magnesium stearate.
In COPD patients, treatment with 100 mcg and 400 mcg Compound (I) alpha-phenylcinnamate (with lactose alone) achieved a clinically relevant adjusted mean difference from placebo in weighted mean trough FEV1 (22 to 24 hrs) of >100 mL.

beta-2 adrenoreceptor = assay: Animal and human studies of Compound (I): bronchodilation and safety; format: in vivo
asthmatic patients [1] = assay: Clinical pharmacology studies of Compound (I) in asthmatic patients (FEV1); format: in vivo, human; details: all doses of Compound (I)
Description: as §1
In one study in asthmatic patients 100 mcg of Compound (I) triphenylacetate formulated with lactose and magnesium stearate has shown a favourable onset of action.

[2] = Studies of Compound (II) in animal models and humans; format: in vivo
asthmatic patients [3] = assay: Clinical pharmacology studies of Compound (II) in asthmatic patients (FEV1); format: in vivo, human; details: doses of from 100 to 400 mcg
Description: Compound (II) has been studied in a number of clinical pharmacology studies, including single- and repeat-dose studies and at a range of doses. In addition, these studies have evaluated Compound (II) with the excipients cellobiose octaacetate and magnesium stearate.

## O=C(O)C(=Cc1ccccc1)c1ccccc1.OCc1cc([C@@H](O)CNCCCCCCOCCOCc2c(Cl)cccc2Cl)ccc1O [Compound (I) alpha-phenylcinnamate, 4-{(1R)-2-[(6-{2-[(2,6-dichlorobenzyl)oxy]ethoxy}hexyl)amino]-1-hydroxyethyl}-2-(hydroxymethyl)phenol α-phenylcinnamate]
COPD patients
  adjusted mean difference from placebo in weighted mean trough FEV1 (22 to 24 hrs): > 100 mL

## OCc1cc([C@@H](O)CNCCCCCCOCCOCc2c(Cl)cccc2Cl)ccc1O [Compound (I), 4-{(1R)-2-[(6-{2-[(2,6-dichlorobenzyl)oxy]ethoxy}hexyl)amino]-1-hydroxyethyl}-2-(hydroxymethyl)phenol]
beta-2 adrenoreceptor
  bronchodilation: sustained bronchodilation over a 24 hour period
  safety profile: favourable safety profile
Asthmatic patients [1]
  improvement in trough (24-hour) FEV1 compared to placebo: statistically and clinically significant improvement

## C[C@@H]1CC2C3C[C@H](F)C4=CC(=O)C=C[C@]4(C)[C@@]3(F)[C@@H](O)C[C@]2(C)[C@@]1(OC(=O)c1ccco1)C(=O)SCF (stereo partly drawn) [Compound (II), 6α, 9α-difluoro-17α-[(2-furanylcarbonyl)oxy]-11β-hydroxy-16α-methyl-3-oxo-androsta-1,4-diene-17β-carbothioic acid S-fluoromethyl ester]
[2]
  duration of action (inhaled glucocorticosteroid): long acting
Asthmatic patients [3]
  improvement in trough (24-hour) FEV1 compared to placebo: statistically and clinically significant improvement
